Test results as given in PMC10238656 (Cancer discovery, 2023).
“And” between values parts separate entries of the source, which are not always exact repeats. Identical values can stand only once. Like-named read-outs stand apart in the source and are kept apart here. Blank lines part the entries; values can stand above or below the compound they belong to.

Experiments:
[1] = molecular target: full-length recombinant KDM5A (Homo sapiens, UniProt P29375); assay: KDM5A enzyme kinetic assay; assay type: biochemical
[2] = molecular target: full-length recombinant KDM5C (Homo sapiens, UniProt P41229); assay: KDM5C enzyme kinetic assay; assay type: biochemical
[3] = molecular target: full-length recombinant KDM5D (Homo sapiens, UniProt Q9BY66)
[4] = test system: TET2; conditions: cited from earlier work
[5] = test system: KDM5B; conditions: cited from earlier work
[6] = test system: TF1-IDH1^R132H cells; assay: Cytokine-withdrawal assay of mutant IDH-transformed TF-1 cells; assay type: cell-based, human
[7] = test system: TF1-shTET2 cells; assay: Cytokine-withdrawal assay of TET2-knockdown TF-1 cells; assay type: cell-based, human; conditions: pre-treatment for two weeks prior to cytokine withdrawal
[8] = test system: TF1-IDH1^R132H cells; assay: Proliferation under cytokine-rich conditions; assay type: cell-based, human; conditions: doses up to 100 nM, cytokine-rich media
[9] = test system: control TF-1 cells; assay: Proliferation under cytokine-rich conditions; assay type: cell-based, human; conditions: doses up to 100 nM, cytokine-rich media
[10] = test system: global 5hmC levels in TF-1 cells; assay: Total 5hmC content by LC-MS; assay type: cell-based, human; conditions: 21 days in the presence of KDM5c70, day 0 of cytokine withdrawal
[11] = test system: TF-1 cells; assay: TF-1 cytokine-withdrawal assay; assay type: cell-based, human; conditions: parental TF-1 cells passaged 21 days in the presence of KDM5c70
[12] = test system: global H3K4 trimethylation in TF-1 cells; assay: Immunoblot analysis of global trimethyl-H3K4; assay type: cell-based, human; conditions: 50 nM KDM5c70, 21 days, vs DMSO-treated TF-1 cells
[13] = test system: IHA cells; assay: Soft agar colony-forming assay; assay type: cell-based, human; conditions: 50 nM KDM5c70, IHA cells passaged 7 times in the presence of KDM5c70
[14] = test system: trimethyl-H3K4 at sites differentially marked in TF1-IDH1^R132H cells, TF-1 cells; assay: Trimethyl-H3K4 ChIP-seq; assay type: cell-based, human; conditions: KDM5c70-treated TF-1 cells vs DMSO
[15] = molecular target: KDM5A^R429I (Homo sapiens, UniProt P29375, R429I); assay type: biochemical
[16] = molecular target: KDM5A^F68L (Homo sapiens, UniProt P29375, F68L); assay type: biochemical
[17] = read-out: 2OG Km, mean ± SD of 3 to 7 assays, 50 mM Tris-HCl pH 7.5, 37 °C
[18] = read-out: (S)-2HG IC50, fourfold 2OG concentration relative to 2OG Km
[19] = read-out: (R)-2HG IC50, fourfold 2OG concentration relative to 2OG Km

Chain of full-length recombinant KDM5A (P29375 whole entry): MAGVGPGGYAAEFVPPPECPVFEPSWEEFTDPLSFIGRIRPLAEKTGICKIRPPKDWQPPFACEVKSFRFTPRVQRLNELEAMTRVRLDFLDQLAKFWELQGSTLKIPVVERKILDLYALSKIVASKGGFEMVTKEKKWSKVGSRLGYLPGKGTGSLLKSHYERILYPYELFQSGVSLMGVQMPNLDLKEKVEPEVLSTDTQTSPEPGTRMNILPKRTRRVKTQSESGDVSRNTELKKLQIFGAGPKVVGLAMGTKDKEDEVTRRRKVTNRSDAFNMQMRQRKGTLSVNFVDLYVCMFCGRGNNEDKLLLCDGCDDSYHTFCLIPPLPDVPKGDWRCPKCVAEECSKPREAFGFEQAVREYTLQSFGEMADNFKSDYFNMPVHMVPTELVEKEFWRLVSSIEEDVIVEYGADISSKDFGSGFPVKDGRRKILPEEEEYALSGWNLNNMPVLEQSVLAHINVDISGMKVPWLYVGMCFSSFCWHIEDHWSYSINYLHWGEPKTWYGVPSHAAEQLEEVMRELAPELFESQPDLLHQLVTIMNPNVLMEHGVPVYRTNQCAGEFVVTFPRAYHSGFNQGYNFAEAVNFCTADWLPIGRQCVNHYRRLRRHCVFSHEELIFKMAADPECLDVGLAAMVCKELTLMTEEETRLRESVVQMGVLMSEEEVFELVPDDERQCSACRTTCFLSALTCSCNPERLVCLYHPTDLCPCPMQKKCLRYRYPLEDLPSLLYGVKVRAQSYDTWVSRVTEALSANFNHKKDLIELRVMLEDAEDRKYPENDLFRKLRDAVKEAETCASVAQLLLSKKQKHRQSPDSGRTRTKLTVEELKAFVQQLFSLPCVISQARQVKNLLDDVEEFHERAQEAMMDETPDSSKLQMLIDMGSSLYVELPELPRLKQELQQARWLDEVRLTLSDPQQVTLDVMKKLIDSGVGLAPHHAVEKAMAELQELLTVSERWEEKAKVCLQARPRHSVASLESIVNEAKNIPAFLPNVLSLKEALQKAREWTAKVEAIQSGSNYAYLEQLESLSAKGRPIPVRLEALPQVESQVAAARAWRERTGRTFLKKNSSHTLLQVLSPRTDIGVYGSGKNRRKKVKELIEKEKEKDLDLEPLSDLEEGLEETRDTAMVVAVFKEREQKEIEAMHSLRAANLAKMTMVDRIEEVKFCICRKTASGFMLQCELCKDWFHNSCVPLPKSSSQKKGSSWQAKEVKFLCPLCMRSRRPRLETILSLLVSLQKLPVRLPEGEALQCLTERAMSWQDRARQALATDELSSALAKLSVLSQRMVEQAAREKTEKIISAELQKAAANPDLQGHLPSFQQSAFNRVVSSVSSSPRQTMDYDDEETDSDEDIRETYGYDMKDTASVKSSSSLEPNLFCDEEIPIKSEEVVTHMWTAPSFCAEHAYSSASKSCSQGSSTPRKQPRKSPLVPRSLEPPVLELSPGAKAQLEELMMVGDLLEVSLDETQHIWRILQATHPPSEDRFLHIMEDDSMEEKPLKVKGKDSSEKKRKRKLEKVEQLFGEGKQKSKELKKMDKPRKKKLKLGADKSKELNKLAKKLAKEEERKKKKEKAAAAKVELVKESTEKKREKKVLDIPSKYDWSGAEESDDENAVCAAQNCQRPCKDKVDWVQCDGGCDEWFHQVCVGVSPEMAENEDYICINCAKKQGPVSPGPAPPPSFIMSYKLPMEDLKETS
Chain of full-length recombinant KDM5D (Q9BY66 whole entry): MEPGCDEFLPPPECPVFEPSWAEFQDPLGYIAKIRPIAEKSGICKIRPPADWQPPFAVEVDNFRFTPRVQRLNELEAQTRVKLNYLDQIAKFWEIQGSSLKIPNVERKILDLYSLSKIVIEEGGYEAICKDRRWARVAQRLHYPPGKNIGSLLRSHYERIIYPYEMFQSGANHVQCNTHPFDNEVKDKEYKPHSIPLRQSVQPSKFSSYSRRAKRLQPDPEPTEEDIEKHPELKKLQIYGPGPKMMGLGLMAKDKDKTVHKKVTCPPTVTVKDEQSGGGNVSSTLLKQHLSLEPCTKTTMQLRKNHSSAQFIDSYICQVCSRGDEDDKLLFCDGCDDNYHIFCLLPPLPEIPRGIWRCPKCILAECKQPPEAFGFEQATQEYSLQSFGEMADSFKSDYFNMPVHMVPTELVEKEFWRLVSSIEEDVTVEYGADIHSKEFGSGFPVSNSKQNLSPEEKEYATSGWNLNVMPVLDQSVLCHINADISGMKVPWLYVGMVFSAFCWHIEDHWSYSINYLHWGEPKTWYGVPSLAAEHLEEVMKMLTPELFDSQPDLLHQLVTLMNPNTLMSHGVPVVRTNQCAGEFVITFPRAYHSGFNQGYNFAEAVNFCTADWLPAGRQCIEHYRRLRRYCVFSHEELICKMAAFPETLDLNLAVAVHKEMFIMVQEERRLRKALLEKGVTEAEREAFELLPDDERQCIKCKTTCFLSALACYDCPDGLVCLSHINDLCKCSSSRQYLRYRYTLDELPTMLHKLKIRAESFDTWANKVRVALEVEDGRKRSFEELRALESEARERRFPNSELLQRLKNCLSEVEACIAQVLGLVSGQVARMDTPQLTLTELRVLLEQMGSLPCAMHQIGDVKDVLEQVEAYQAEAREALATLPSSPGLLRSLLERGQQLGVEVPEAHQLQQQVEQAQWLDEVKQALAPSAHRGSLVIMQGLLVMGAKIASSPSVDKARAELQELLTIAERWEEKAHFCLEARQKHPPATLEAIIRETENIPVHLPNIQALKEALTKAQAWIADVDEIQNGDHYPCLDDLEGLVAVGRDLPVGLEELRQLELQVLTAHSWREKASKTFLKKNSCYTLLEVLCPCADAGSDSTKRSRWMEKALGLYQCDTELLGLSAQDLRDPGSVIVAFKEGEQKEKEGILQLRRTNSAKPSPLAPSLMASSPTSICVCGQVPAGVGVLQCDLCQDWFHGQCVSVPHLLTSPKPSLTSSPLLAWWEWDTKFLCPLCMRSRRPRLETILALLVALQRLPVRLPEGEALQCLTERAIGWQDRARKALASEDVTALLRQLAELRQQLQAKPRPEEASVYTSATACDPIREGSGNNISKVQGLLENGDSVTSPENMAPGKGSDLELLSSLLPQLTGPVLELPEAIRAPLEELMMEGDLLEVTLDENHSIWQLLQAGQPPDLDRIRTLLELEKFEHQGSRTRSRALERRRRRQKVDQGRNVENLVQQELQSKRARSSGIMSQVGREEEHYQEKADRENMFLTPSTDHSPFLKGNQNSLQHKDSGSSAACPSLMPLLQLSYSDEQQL
Chain of full-length recombinant KDM5C (P41229 whole entry): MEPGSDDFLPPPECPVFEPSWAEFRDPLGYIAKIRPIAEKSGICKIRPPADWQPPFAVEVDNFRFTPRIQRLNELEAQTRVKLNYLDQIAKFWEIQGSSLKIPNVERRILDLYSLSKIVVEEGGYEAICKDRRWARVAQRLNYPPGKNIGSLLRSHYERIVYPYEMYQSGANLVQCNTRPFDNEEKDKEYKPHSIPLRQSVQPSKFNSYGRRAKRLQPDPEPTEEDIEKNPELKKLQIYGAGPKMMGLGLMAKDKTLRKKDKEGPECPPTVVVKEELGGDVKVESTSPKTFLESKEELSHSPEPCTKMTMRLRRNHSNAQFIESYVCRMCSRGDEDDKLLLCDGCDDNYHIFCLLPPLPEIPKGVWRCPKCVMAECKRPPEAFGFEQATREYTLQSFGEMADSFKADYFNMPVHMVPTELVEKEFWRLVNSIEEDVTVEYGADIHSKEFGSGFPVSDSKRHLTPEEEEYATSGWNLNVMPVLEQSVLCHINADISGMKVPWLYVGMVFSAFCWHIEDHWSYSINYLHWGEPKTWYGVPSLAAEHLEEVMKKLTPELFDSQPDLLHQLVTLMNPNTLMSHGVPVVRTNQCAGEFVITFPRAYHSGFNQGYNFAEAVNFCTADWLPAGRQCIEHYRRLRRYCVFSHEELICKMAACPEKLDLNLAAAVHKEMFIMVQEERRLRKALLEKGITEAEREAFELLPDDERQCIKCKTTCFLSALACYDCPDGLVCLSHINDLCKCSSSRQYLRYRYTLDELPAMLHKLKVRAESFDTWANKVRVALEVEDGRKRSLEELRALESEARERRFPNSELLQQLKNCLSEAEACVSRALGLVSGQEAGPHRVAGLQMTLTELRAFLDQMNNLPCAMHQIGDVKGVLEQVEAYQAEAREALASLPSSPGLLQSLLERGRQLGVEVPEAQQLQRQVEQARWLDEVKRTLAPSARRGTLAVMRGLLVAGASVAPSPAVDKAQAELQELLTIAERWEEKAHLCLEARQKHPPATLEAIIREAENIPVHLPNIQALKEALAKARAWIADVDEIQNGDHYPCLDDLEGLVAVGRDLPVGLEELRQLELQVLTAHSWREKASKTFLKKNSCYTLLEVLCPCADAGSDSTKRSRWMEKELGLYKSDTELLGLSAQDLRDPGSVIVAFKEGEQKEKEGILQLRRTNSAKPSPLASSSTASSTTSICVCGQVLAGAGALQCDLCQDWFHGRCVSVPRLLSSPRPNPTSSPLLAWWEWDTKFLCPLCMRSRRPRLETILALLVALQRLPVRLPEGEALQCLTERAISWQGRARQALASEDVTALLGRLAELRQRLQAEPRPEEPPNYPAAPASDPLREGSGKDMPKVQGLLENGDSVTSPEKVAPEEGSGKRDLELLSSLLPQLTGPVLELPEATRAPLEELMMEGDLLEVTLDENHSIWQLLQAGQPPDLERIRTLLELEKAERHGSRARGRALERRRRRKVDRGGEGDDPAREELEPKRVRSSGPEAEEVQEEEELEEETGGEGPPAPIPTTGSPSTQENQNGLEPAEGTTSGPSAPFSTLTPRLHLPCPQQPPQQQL
Chain of KDM5A^F68L (P29375 whole entry F68L): as the sequence (P29375 whole entry) above, with F68L counted along it
Chain of KDM5A^R429I (P29375 whole entry R429I): as the sequence (P29375 whole entry) above, with R429I counted along it

SMILES: O=C(O)CCC(=O)C(=O)O [2OG, 2-oxoglutarate]
Km ([1]; read-out: 2OG Km, mean ± SD of 3 to 7 assays, 50 mM MES pH 6.5, 37 °C): 4.5 ± 0.3 µM
Km [2, 17]: 2.7 ± 0.4 µM
Km [3, 17]: 4.3 ± 1.5 µM
Km ([4]; read-out: 2OG Km): 55 ± 20 µM
Km ([5]; read-out: 2OG Km): 10 ± 2 µM

SMILES: CC(C)N(C(=O)c1cc(F)ccc1Oc1cncnc1N1CC2(CCN(CC3CCC(NS(C)(=O)=O)CC3)CC2)C1)C(C)C (centres unmarked) [VTP50469]
effect on cytokine independence ([6]; pre-treatment for two weeks prior to cytokine withdrawal): did inhibit TF1-IDH1^R132H cytokine independence in a dose-dependent manner
effect on cytokine independence ([6]; treatment started on day 0 of cytokine withdrawal): no effect
effect on cytokine independent proliferation [7]: inhibited the cytokine independent proliferation of TF1-shTET2 cells to a similar extent as TF1-IDH1^R132H cells
effect on cytokine-dependent proliferation [8]: no effect
effect on cytokine-dependent proliferation [9]: no effect

SMILES: CCOC(=O)c1ccnc(CNCC(=O)N(CC)CCN(C)C)c1 [KDM5c70]
effect on global 5hmC levels [10]: neither KDM5A/C/D triple knockout nor treatment with KDM5c70 had a significant effect
induction of TF-1 cytokine independence [11]: sufficient to induce TF-1 cytokine independence
effect on global trimethyl-H3K4 levels (western blot) [12]: increased global levels of trimethyl-H3K4
soft agar colony formation [13]: sufficient to induce soft agar colony formation
trimethyl-H3K4 ChIP-seq signal at sites enriched in TF1-IDH1^R132H cells [14]: trimethyl-H3K4-rich regions were enriched

inhibition of KDM5A (in words) [1]: potently inhibited
IC50 [1, 18]: 150 ± 100 µM
inhibition of KDM5C (in words) [2]: potently inhibited
IC50 [2, 18]: 200 ± 10 µM
inhibition of KDM5D (in words) [3]: potently inhibited
IC50 [3, 18]: 310 ± 30 µM
SMILES: O=C(O)CC[C@H](O)C(=O)O [(S)-2HG]
IC50 ([4]; read-out: (S)-2HG IC50): 1600 µM

IC50 [1, 19]: 930 ± 200 µM
IC50 [2, 19]: 670 ± 100 µM
IC50 [3, 19]: 800 ± 190 µM
SMILES: O=C(O)CC[C@@H](O)C(=O)O [(R)-2HG, (R)-2-hydroxyglutarate]
sensitivity to inhibition by (R)-2HG compared with wild-type KDM5A [15]: similarly sensitive to inhibition by (R)-2HG
IC50 ([4]; read-out: (R)-2HG IC50): ~5000 µM and 5000 µM
sensitivity to inhibition by (R)-2HG compared with wild-type KDM5A [16]: similarly sensitive to inhibition by (R)-2HG
